# Test results as given in patent US20070128217A1 (priority 2003, published 2007).
# Columns and labels:
# [1] = test system: antibodies in sera from SARS patients (sera 1a, 1b, 2, 6, 37, 62, London, SARS-yellow, SARS-green); type: binding, human; design: Binding of serum 6 to linear peptides of protein X1 of SARS-CoV Urbani / Binding of serum 37 to linear peptides of protein X1 of SARS-CoV Urbani / Binding of serum 6 to looped/cyclic peptide (PEPSCAN-ELISA) / Binding of serum 37 to looped/cyclic peptide (PEPSCAN-ELISA) / Binding of serum 37 to looped/cyclic peptides of protein X1 of SARS-CoV Urbani / Binding of serum 6 to linear peptides of protein X2 / Binding of serum 37 to linear peptides of protein X2 / Binding of serum 37 to looped/cyclic peptides of protein X2 of SARS-CoV Urbani / Binding of serum 6 to linear peptides of protein M of SARS-CoV Urbani / Binding of serum 37 to linear peptides of protein M of SARS-CoV Urbani / Binding of serum 6 to looped/cyclic peptides of protein M of SARS-CoV Urbani / Binding of serum 37 to looped/cyclic peptides of protein M of SARS-CoV Urbani / Binding of serum 6 to linear peptides of protein X3 of SARS-CoV Urbani / Binding of serum 37 to linear peptides of protein X3 of SARS-CoV Urbani / Binding of serum 37 to looped/cyclic peptides of protein X3 of SARS-CoV Urbani / Binding of serum 6 to linear peptides of protein X4 of SARS-CoV Urbani / Binding of serum 37 to linear peptides of protein X4 of SARS-CoV Urbani / Binding of serum 37 to looped/cyclic peptides of protein X4 of SARS-CoV Urbani / Binding of serum 6 to linear peptides of protein X5 of SARS-CoV Urbani / Binding of serum 37 to linear peptides of protein X5 of SARS-CoV Urbani / Binding of serum 37 to looped/cyclic peptides of protein X5 of SARS-CoV Urbani / Binding of serum 6 to linear peptides of protein N of SARS-CoV Urbani / Binding of serum 37 to linear peptides of protein N of SARS-CoV Urbani / Binding of serum 6 to linear peptide (PEPSCAN-ELISA) / Binding of serum 1a to looped/cyclic peptides of protein N of SARS-CoV Urbani / Binding of serum 1b to looped/cyclic peptides of protein N of SARS-CoV Urbani / Binding of serum 2 to looped/cyclic peptides of protein N of SARS-CoV Urbani / Binding of serum 6 to looped/cyclic peptides of protein N of SARS-CoV Urbani / Binding of serum 37 to looped/cyclic peptides of protein N of SARS-CoV Urbani / Binding of serum 62 to looped/cyclic peptides of protein N of SARS-CoV Urbani / Binding of serum London to looped/cyclic peptides of protein N of SARS-CoV Urbani / Binding of serum SARS-green to looped/cyclic peptides of protein N of SARS-CoV Urbani: unit not given here
# [2] = test system: rabbit serum obtained by immunizing a rabbit with the SARS-CoV strain Frankfurt 1; type: binding; design: Binding of a rabbit serum to linear peptides / Binding of a rabbit serum to looped peptides / Rabbit serum linear peptides / Rabbit serum looped peptides / Binding of a rabbit serum to linear peptides of protein N of SARS-CoV Urbani (Rabbit serum linear peptides) / Binding of a rabbit serum to looped/cyclic peptides of protein N of SARS-CoV Urbani (Rabbit serum looped peptides): unit not given here
# [3] = test system: control sera (pooled serum of ten healthy LUMC hospital workers; commercial negative donor pooled serum from the Dutch bloodbank); type: binding, human; design: Binding of Control serum LUMC to linear peptides / Binding of Control serum Blood-bank to linear peptides / Binding of Control serum LUMC to looped peptides / Binding of Control Serum Blood-Bank to Looped peptides / Binding of Control serum LUMC to linear peptides of the protein M of SARS-CoV Urbani / Binding of Control serum Blood-bank to linear peptides of the protein M of SARS-CoV Urbani / Binding of Control serum LUMC to looped peptides of the protein M of SARS-CoV Urbani / Binding of Control Serum Blood-Bank to Looped peptides of the protein M of SARS-CoV Urbani: unit not given here
Sequence,Binding of serum 1a to linear peptides of protein M of SARS-CoV Urbani [1],Binding of serum 1a to looped/cyclic peptides of protein M of SARS-CoV Urbani [1],Binding of serum 1b to linear peptides of protein M of SARS-CoV Urbani [1],Binding of serum 1b to looped/cyclic peptides of protein M of SARS-CoV Urbani [1],Binding of serum 2 to linear peptides of protein M of SARS-CoV Urbani [1],Binding of serum 2 to looped/cyclic peptides of protein M of SARS-CoV Urbani [1],Binding of serum 6 to linear peptides of protein M of SARS-CoV Urbani [1],Binding of serum 6 to looped/cyclic peptides of protein M of SARS-CoV Urbani [1],Binding of serum 37 to linear peptides of protein M of SARS-CoV Urbani [1],Binding of serum 37 to looped/cyclic peptides of protein M of SARS-CoV Urbani [1],Binding of serum 62 to linear peptides of protein M of SARS-CoV Urbani [1],Binding of serum 62 to looped/cyclic peptides of protein M of SARS-CoV Urbani [1],Binding of serum London to linear peptides of protein M of SARS-CoV Urbani [1],Binding of serum London to looped/cyclic peptides of protein M of SARS-CoV Urbani [1],Binding of serum SARS-green to linear peptides of protein M of SARS-CoV Urbani [1],Binding of serum SARS-green to looped/cyclic peptides of protein M of SARS-CoV Urbani [1],Binding of serum SARS-yellow to linear peptides of protein M of SARS-CoV Urbani [1],Binding of serum SARS-yellow to looped/cyclic peptides of protein M of SARS-CoV Urbani [1],Rabbit serum linear peptides [2],Rabbit serum looped peptides [2],also measured
LLQFAYSNRNRFLYI,0.7,0.7,0.6,0.5,0.4,0.6,0.3,0.6,0.3,0.5,0.3,0.4,0.3,0.2,0.5,0.1,0.2,0.5,0.2,0.4,Binding of Control Serum Blood-Bank to Looped peptides of the protein M of SARS-CoV Urbani [3]: 0.5; Binding of Control serum Blood-bank to linear peptides of the protein M of SARS-CoV Urbani [3]: 0.6; Binding of Control serum LUMC to linear peptides of the protein M of SARS-CoV Urbani [3]: 0.6; Binding of Control serum LUMC to looped peptides of the protein M of SARS-CoV Urbani [3]: 0.5
EQWNLVIGFLFLAWI,0.7,0.7,0.5,0.6,0.5,0.6,0.5,0.4,0.4,0.7,0.5,0.7,0.4,0.2,0.4,0.4,0.3,0.6,0.2,0.4,Binding of Control Serum Blood-Bank to Looped peptides of the protein M of SARS-CoV Urbani [3]: 0.6; Binding of Control serum Blood-bank to linear peptides of the protein M of SARS-CoV Urbani [3]: 0.5; Binding of Control serum LUMC to linear peptides of the protein M of SARS-CoV Urbani [3]: 0.4; Binding of Control serum LUMC to looped peptides of the protein M of SARS-CoV Urbani [3]: 0.7
